Measurements reported in PMC5107307 (ACS chemical biology, 2016).
Where “and” joins values, the source holds several entries; their conditions need not be identical. Equal entries are not always repeated. Non-standard residues stand in square brackets, D forms with d. Residues, ends and D or L forms follow the SMILES beside them.

How the values were obtained:
[1] = prior pharmacokinetic/pharmacodynamic data; cited from earlier work
[2] = radiolabeled peptide; cited from earlier work
PTHR1 [3] = target: T1, PTHR1 (Homo sapiens, UniProt Q03431); test: PTHR1 competition binding assay with 125I-PTH
T1 sequence (Q03431 27-593): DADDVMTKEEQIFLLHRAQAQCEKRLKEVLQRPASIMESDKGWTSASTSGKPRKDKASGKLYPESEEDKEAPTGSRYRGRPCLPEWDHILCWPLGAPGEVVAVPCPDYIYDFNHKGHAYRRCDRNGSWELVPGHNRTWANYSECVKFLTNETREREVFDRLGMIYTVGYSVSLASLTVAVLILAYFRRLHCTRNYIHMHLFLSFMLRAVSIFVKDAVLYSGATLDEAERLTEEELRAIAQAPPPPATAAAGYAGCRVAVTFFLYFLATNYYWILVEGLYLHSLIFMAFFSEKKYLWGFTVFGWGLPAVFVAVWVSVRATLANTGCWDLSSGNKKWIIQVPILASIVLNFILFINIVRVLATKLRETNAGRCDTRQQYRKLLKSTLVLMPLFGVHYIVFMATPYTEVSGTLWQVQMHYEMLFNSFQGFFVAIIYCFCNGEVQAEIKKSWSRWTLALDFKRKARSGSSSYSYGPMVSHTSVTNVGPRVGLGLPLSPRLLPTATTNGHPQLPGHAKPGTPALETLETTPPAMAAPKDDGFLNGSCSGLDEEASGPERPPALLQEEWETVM

bovine trypsin = target: T2, bovine trypsin (Bos taurus, UniProt P00760); test: in vitro; type: in vitro ADME
T2 sequence (P00760 24-246): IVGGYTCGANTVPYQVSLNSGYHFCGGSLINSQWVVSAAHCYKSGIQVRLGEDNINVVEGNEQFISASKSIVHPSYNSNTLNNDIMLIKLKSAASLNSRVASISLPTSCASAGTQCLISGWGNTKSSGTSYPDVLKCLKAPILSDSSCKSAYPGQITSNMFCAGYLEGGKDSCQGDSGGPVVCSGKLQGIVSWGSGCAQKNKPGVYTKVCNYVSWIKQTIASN

female CD1 mice = test: Antagonism of PTH; type: in vivo, mouse; conditions: antagonist 500 nmol/kg s.c. one hour after PTH(1–34) 10 nmol/kg
[4] = test system: constitutively active PTHR1 variants; conditions: cited from earlier work
proteinase K = proteinase K (Parengyodontium album, UniProt P06873); test: in vitro; conditions: fungal, proteinase K (isolated protease)
SGS-72 cells = test: Effect on basal cAMP levels in SGS-72 cells; conditions: Fig. S1a
VIP-receptor 1 (VIPR1) = target: T3, VIP-receptor 1 (VIPR1) (Homo sapiens, UniProt P32241); test: Inhibition of VIP-induced cAMP production in SGS-72 cells
T3 sequence (P32241 31-457): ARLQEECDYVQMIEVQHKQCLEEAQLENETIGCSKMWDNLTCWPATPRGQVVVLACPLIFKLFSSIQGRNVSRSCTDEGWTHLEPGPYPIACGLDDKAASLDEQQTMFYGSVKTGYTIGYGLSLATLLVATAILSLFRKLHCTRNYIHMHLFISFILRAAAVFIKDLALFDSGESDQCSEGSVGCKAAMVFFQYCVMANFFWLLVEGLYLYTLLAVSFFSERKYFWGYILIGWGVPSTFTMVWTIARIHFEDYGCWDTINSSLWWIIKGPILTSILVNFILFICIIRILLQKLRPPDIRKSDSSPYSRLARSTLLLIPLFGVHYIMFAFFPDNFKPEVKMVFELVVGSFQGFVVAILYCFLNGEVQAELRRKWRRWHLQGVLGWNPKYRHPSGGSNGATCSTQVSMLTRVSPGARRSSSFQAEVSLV

β2-adrenergic receptor = β2-adrenergic receptor (Homo sapiens, UniProt P07550); test: Effect on isoproterenol-stimulated cAMP production in SGS-72 cells; conditions: Fig. S1b
PTHR1 [5] = target: T1, PTHR1; test: Antagonism of agonist-stimulated cAMP generation in SGS-72 cells; type: cell-based

β2-adrenergic receptor, sequence (P07550 whole entry): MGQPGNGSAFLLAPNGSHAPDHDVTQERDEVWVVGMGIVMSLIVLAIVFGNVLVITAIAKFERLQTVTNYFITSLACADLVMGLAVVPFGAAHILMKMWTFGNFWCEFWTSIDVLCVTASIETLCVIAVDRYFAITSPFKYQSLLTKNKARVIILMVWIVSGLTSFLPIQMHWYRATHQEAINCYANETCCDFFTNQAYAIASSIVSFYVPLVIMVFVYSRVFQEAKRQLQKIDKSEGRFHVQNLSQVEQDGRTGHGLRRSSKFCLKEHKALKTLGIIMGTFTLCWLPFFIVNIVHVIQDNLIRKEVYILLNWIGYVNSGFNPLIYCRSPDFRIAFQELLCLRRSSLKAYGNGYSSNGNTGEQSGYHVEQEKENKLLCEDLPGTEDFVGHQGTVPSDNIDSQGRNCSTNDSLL
proteinase K, sequence (P06873 106-384): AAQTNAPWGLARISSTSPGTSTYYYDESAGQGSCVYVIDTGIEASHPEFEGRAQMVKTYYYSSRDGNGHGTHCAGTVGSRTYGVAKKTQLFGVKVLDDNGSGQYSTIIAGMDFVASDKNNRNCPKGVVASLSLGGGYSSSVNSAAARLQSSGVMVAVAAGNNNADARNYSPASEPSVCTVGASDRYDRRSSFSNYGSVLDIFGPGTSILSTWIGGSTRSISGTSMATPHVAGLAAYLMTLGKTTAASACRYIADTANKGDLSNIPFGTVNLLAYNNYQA

## CC[C@H](C)[C@H](NC(=O)[C@H](CCC(=O)O)NC(=O)[C@H](CO)NC(=O)[C@@H](NC(=O)[C@@H](N)CO)C(C)C)C(=O)N[C@@H](CCC(N)=O)C(=O)N[C@@H](CC(C)C)C(=O)N[C@@H](CCSC)C(=O)N[C@@H](Cc1cnc[nH]1)C(=O)N[C@@H](CC(N)=O)C(=O)N[C@@H](CC(C)C)C(=O)NCC(=O)N[C@@H](CCCCN)C(=O)N[C@@H](Cc1cnc[nH]1)C(=O)N[C@@H](CC(C)C)C(=O)N[C@@H](CC(N)=O)C(=O)N[C@@H](CO)C(=O)N[C@@H](CCSC)C(=O)N[C@@H](CCC(=O)O)C(=O)N[C@@H](CCCN=C(N)N)C(=O)N[C@H](C(=O)N[C@@H](CCC(=O)O)C(=O)N[C@@H](Cc1c[nH]c2ccccc12)C(=O)N[C@@H](CC(C)C)C(=O)N[C@@H](CCCN=C(N)N)C(=O)N[C@@H](CCCCN)C(=O)N[C@@H](CCCCN)C(=O)N[C@@H](CC(C)C)C(=O)N[C@@H](CCC(N)=O)C(=O)N[C@@H](CC(=O)O)C(=O)N[C@H](C(=O)N[C@@H](Cc1cnc[nH]1)C(=O)N[C@@H](CC(N)=O)C(=O)N[C@@H](Cc1ccccc1)C(=O)O)C(C)C)C(C)C [PTH(1–34)]
[1]
  Half-life of clearance from the circulation: 300 to 600 s
[2]
  Stability in plasma: highly stable in plasma

## CSCC[C@H](NC(=O)[C@H](CO)NC(=O)[C@H](CO)NC(=O)[C@H](CC(C)C)NC(=O)[C@H](Cc1c[nH]cn1)NC(=O)[C@H](CCCCN)NC(=O)[C@@H](Cc1c[nH]c2ccccc12)NC(=O)[C@H](CC(C)C)NC(=O)[C@H](CC(N)=O)NC(=O)[C@H](Cc1c[nH]cn1)NC(=O)[C@H](CCSC)NC(=O)[C@@H](N)Cc1ccccc1)C(=O)N[C@@H](CCC(=O)O)C(=O)N[C@@H](CCCNC(=N)N)C(=O)N[C@H](C(=O)N[C@@H](CCC(=O)O)C(=O)N[C@@H](Cc1c[nH]c2ccccc12)C(=O)N[C@@H](CC(C)C)C(=O)N[C@@H](CCCNC(=N)N)C(=O)N[C@@H](CCCCN)C(=O)N[C@@H](CCCCN)C(=O)N[C@@H](CC(C)C)C(=O)N[C@@H](CCC(N)=O)C(=O)N[C@@H](CC(=O)O)C(=O)N[C@H](C(=O)N[C@@H](Cc1c[nH]cn1)C(=O)N[C@@H](CC(N)=O)C(=O)N[C@@H](Cc1ccccc1)C(N)=O)C(C)C)C(C)C [Peptide 1, bPTH(7–34) DTrp^12] (H-FMHNL[dW]KHLSSMERVEWLRKKLQDVHNF-NH2; N-terminus assumed)
PTHR1 [3]
  IC50: 4.7 ± 1.2 nM
Bovine trypsin
  Protease stability, half life, Trypsin: 42 s
Bovine trypsin; bovine, isolated enzyme trypsin
  half-life: 42 s
Female CD1 mice
  Effect on PTH(1–34)-induced blood Ca2+ response, antagonist given after agonist: only small effects
  Effect on PTH(1–34)-induced blood Pi response, antagonist given after agonist: only small effects
[4]
  Inverse agonism of cAMP signaling at constitutively active PTHR1 variants: acts as an inverse agonist
Proteinase K
  half-life: 7.8 s
SGS-72 cells
  Effect on low basal cAMP levels in SGS-72 cells: neither α-peptide 1 nor α/β-peptide 2 substantially reduces
VIP-receptor 1 (VIPR1)
  IC50: > 1000 nM
β2-adrenergic receptor
  Effect on stimulation of cAMP production caused by isoproterenol: neither α-peptide 1 nor α/β-peptide 2 substantially reduces

## CSCC[C@@H](CC(=O)N[C@@H](CCC(=O)O)C(=O)N[C@@H](CCCNC(=N)N)C(=O)N[C@H](C(=O)N[C@@H](CCC(=O)O)CC(=O)N[C@@H](Cc1c[nH]c2ccccc12)C(=O)N[C@@H](CC(C)C)C(=O)N[C@@H](CCCNC(=N)N)C(=O)N[C@@H](CCCCN)CC(=O)N[C@@H](CCCCN)C(=O)N[C@@H](CC(C)C)C(=O)N[C@@H](CCC(N)=O)C(=O)N[C@@H](CC(=O)O)CC(=O)N[C@H](C(=O)N[C@@H](Cc1c[nH]cn1)C(=O)N[C@@H](CC(N)=O)C(=O)N[C@H](CC(N)=O)Cc1ccccc1)C(C)C)C(C)C)NC(=O)[C@H](CO)NC(=O)[C@H](CO)NC(=O)[C@H](CC(C)C)NC(=O)C[C@H](Cc1c[nH]c2ccccc12)NC(=O)[C@H](CCCCN)NC(=O)[C@@H](Cc1c[nH]c2ccccc12)NC(=O)[C@H](CC(C)C)NC(=O)[C@H](CC(N)=O)NC(=O)[C@H](Cc1c[nH]cn1)NC(=O)[C@H](CCSC)NC(=O)[C@@H](N)Cc1ccccc1 [Peptide 2]
PTHR1 [3]
  IC50: 4.5 ± 1.2 nM
PTHR1 [5]
  IC50: 6.15 nM and 10.6 nM and 2.07 nM
PTHR1 [5]; SGS-72 cells, cAMP response to M-PTH(1–11)
  Reduction in M-PTH(1–11) inhibition potency of 2 in comparison to 1: < 5 fold
Bovine trypsin
  Protease stability, half life, Trypsin: > 1200 s
Female CD1 mice
  Effect on PTH(1–34)-induced blood Ca2+ response, antagonist given after agonist: only small effects
  Effect on PTH(1–34)-induced blood Pi response, antagonist given after agonist: only small effects
Proteinase K
  half-life: 150 s
SGS-72 cells
  Effect on low basal cAMP levels in SGS-72 cells: neither α-peptide 1 nor α/β-peptide 2 substantially reduces
VIP-receptor 1 (VIPR1)
  IC50: > 1000 nM
β2-adrenergic receptor
  Effect on stimulation of cAMP production caused by isoproterenol: neither α-peptide 1 nor α/β-peptide 2 substantially reduces
